In patent US20110192396A1, “PHARMACEUTICAL COMPOSITION FOR PREVENTING OR TREATING CHRONIC OBSTRUCTIVE PULMONARY DISEASE” (DAEWOONG CO., LTD., priority 2008, published 2011):

Experiments:
[1] = tested on: MUC5AC gene expression in NCI-H292 cells; test: Suppression of MUC5AC mucus gene expression in PA-LPS/TGF-α-treated NCI-H292 cells (real time PCR); type: cell-based, human; details: 50 ng/mL EGF; NCI-H292 cells pre-treated with PA-LPS and TGF-α for 6 hours; vs control with PA-LPS and TGF-α only
Description: NCI-H292 cells (ATCC, CRL-1848) were divided into a 6-well plate such that the number of the NCI-H292 cells per well was 10^6. The NCI-H292 cells were incubated in a 5% CO2 incubator at 37° C. for one day. The NCI-H292 cells were incubated in a serum free medium for one day, and then treated with 100 mg/mL of Pseudomonas aeruginosa lipopolysaccharide (PA-LPS, Sigma L8643) and 10 ng/mL of a transforming growth factor-alpha (TGF-α R&D systems 239-a-100) at the same time for 6 hours to induce overexpression of MUC5AC mucus. The PA-LPS and TGF-α were removed, and epidermal growth factors (EGFs) having different concentrations were added to the NCI-H292 cells. […]
RNA was isolated using a kit manufactured by QIAGEN (RNeasy Plus Mini Kit, 74134) according to the manuals provided by the manufacturer in order to isolate entire RNA. Absorbance of the isolated RNA was measured using a spectrophotometer at a wavelength of 260 nm to quantitatively analyze RNA. […]
A SYBR green assay was performed by adding cDNA, a forward primer, and a reverse primer to 12.5 mL of a SYBR green PCR master mix (Applied Biosystems, 4309155) such that the total volume of the mixture was set to 25 mL. […] The determined concentrations of the primers for MUC5AC, ICAM-1, RPL1 were respectively 900 nM, and the concentration β-ACT thereof was 300 nM. […]

MLE-12 cells = test: Protection of alveolar cells from elastase cell toxicity, neutral red uptake (NRU) assay; type: cell-based, murine; details: 100 μg/mL EGF; 2 U/mL elastase; elastase only = 100%, medium only = 0% cell toxicity
Description: MLE-12 cells were divided into a 96-well plate such that the number of MLE-12 cells per well was […]. The MLE-12 cells were incubated in 5% CO2 incubator at 37° C. for one day. […] A neutral red uptake (NRU) assay was performed using a neutral red that dyes only living cells to measure the degree of cell death. […] The cells were fixed using a fixing solution (1% formaldehyde, 1% CaCl2) for 1 minute, and the neutral red dye reagent was extracted using a chromogenic solution including 50% ethanol and 1% glacial acetic acid. Then, light absorbance was measured at a wavelength of 540 nm.

[2] = tested on: PPE-induced emphysema model; test: PPE-induced rat emphysema model, histopathological examination of lung and trachea; type: in vivo, Sprague-Dawley rats
Description: 6-week old male Sprague-Dawley rats (Japan SLC, Inc) having an average weight ranging from 200 to 250 g were accommodated for 1 week to prepare 7-week old rats. The rats were raised in individual ventilated cage (IVC) racks (GR900 plus rat cage, Polysulfone, 355 W×405 I×230 H mm) at a constant temperature (22±3° C.) at a constant relative humidity (55±15%) using fluorescent lamps (lights are on 08:00 to 20:00) for 12 hours, and food and water were fed ad libitum (solid feed 5L79, Orient Co., Ltd.). 120 U/kg, 1 mL/kg of pig pancreas elastase (PPE, Merck 324682) was administered once by intratracheal instillation to rats anesthetized with isoflurane. 1 mL/kg of 0.9% saline was administered once by intratracheal instillation to rats in the group in which emphysema was not induced. In order to uniformly administer test article into lung cavity, the same amount of air as the administered substances was administered during the intratracheal instillation. […] After 7 weeks from the PPE administration, the rats were anesthetized with isoflurane, and the lung and the trachea were isolated and fixed using 10% neutral formalin. Then histopathological examination of the lung and the trachea were performed and microscopic images were obtained. The test results were represented as average ±standard deviation. In order to detect a test group statistically significant from a control group, the results were statistically tested using one way ANOVA, and significance was analyzed using a multiple comparison method. […] In addition, FIGS. 7 and 8 illustrated the results of the tissue pathological tests of tracheas and lungs with a table.

[3] = G3: 0.1 mg/kg EGF intratracheal instillation, once a week for 3 weeks, rats

## EGF: recombinant proteins having the same amino acid sequence as natural human epidermal growth factor (hEGF); 53 amino acids, SEQ ID NO: 1
[1]
  reduction of expression of MUC5AC: 65%
MLE-12 cells
  reduction of cell toxicity: about 15%
[2]; G3, group with emphysema treated with EGF
  degree and number of enlargement and breakdown of alveoli compared with the control group of PPE-induced emphysema model: reduced
[2]; [3]
  cases with mild breakdown of alveoli: 3 cases
  cases with mild enlargement of alveoli: 3 cases
  cases with moderate breakdown of alveoli: 1 case
  cases with moderate enlargement of alveoli: 1 case
  cases with very mild breakdown of alveoli: 1 case
  cases with very mild enlargement of alveoli: 2 cases
  cases with very mild histiocytosis: 1 case
